From patent publication US12466821B2 (Novartis AG, priority 2018, dated 2025) come the findings set out here.

pEC50, pIC50: −log10 of the molar value.

Experiment [1] deals with human HSV DNA polymerase UL30 (Human herpesvirus 1 (strain 17) (HHV-1) (Human herpes simplex virus 1), UniProt P04293). Put plainly: HSV polymerase biochemical assay (molecular beacon-based). Summed up:
(§1)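 Readout was beacon fluorescence (ex 480, em 535 nm), used to derive IC50. Each dNTP was at 1.25 uM, with 200 nM primer and 100 nM beacon, after a 30-min RT inhibitor preincubation. Enzyme was 625 pM for HSV UL30 (20 min RT reaction) or 100 pM for CMV UL54 (60 min RT), both sf9-expressed MBP fusions, in pH 7.5 Tris buffer with MgCl2.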

The subject of experiment [2] is Luciferase-encoding HCMV, AD169 strain. The experiment can be described thus: CMV Luciferase assay (cellular herpesvirus replication). In kind it is cell-based. The conditions noted are these: Human betaherpesvirus 5, AD169, read-out: CMV-Luc Cellular EC50. Summed up: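 Neonatal human dermal fibroblasts were pretreated 1 h with compound (final 0.0159–50 μM or 0.00318–10 μM, 0.5% DMSO), then infected at MOI 1 with AD169 carrying pp28-promoter luciferase. After 72 h at 37 °C, Renilla-Glo luminescence normalized to no-virus and virus-only controls; EC50 by 4-parameter logistic model.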

Experiment [3] has as its target human CMV DNA polymerase UL54 (Human cytomegalovirus (strain AD169) (HHV-5) (Human herpesvirus 5), UniProt P08546). The experiment can be described thus: CMV polymerase biochemical assay (molecular beacon-based). Summed up: as §1

For orientation: pIC50 means the IC50 on a negative log10 scale, so that one unit is a factor of ten. Read a high pIC50 as a small IC50. Usually pEC50 stands for −log10 of the EC50, conventionally taken in molar units. `N#Cc1ccc(CNC(=O)c2ccc3n(c2=O)CCN(CC2(S(=O)(=O)CC4(C(F)(F)F)CC4)CC2)C3=O)cc1` [Example 104-2]: the results for the pIC50 in experiment [1] and in experiment [3] were 6.52 and 7.61, respectively. In addition, the pEC50 in experiment [2] was 5.74.
Regarding `CS(=O)(=O)C1(CN2CCn3c(ccc(C(=O)NCc4ncc(Cl)cn4)c3=O)C2=O)CC1` [Example 40], the pIC50 in experiment [1] is 4.55; in experiment [3], 6.32. In addition, the negative-log EC50 (pEC50) in experiment [2] was 5.00.
The like results for `CS(=O)(=O)CCCN1CCn2c(ccc(C(=O)NCc3ccc(Cl)cc3)c2=O)C1=O` [Example 52] were, in that order, 6.10, 6.79 and 5.53.
On to `CC(=O)NS(=O)(=O)C1(CN2CCn3c(ccc(C(=O)NCc4ccc(C#N)cc4)c3=O)C2=O)CC1` [Example 73-3], for which the figures for the pIC50 in experiment [1] and in experiment [3] were 7.34 and 8.80, respectively. The pEC50 in experiment [2] is 5.03.
As to `N#Cc1ccc(CNC(=O)c2ccc3n(c2=O)CCN(CC2(S(=O)(=O)C4CCCC4)CC2)C3=O)cc1` [Example 22], the pIC50 in experiment [1] is 7.25; in experiment [3] it was 8.72. Moreover, in experiment [2], the pEC50 is 7.05.
Take `CC(C)(CO)S(=O)(=O)C1(CN2CCn3c(ccc(C(=O)NCc4ccc(Cl)cc4)c3=O)C2=O)CC1` [Example 180, N-(4-chlorobenzyl)-2-((1-((1-hydroxy-2-methylpropan-2-yl)sulfonyl)cyclopropyl)methyl)-1,6-dioxo-1,3,4,6-tetrahydro-2H-pyrido[1,2-a]pyrazine-7-carboxamide]: the values for the pIC50 in experiment [1] and in experiment [3] were 7.64 and 9.70, respectively. Besides, the negative logarithm of the EC50 (pEC50) in experiment [2] was 8.21.
As to `N#Cc1ccc(CNC(=O)c2ccc3n(c2=O)CCN(CC2(S(=O)(=O)C4COC4)CC2)C3=O)cc1F` [Example 29], the pIC50 was 7.20 in experiment [1] and 8.74 in experiment [3]. The pEC50 in experiment [2] is 7.06.
In the case of `N#Cc1ccc(CNC(=O)c2ccc3n(c2=O)CCN(CC2(S(=O)(=O)C4(C(F)F)CC4)CC2)C3=O)cc1Cl` [Example 99-3], the pIC50 in experiment [1] is 6.70; in experiment [3], 9.10. In addition, the pEC50 in experiment [2] was 6.77.
For `CC(C)(C)NS(=O)(=O)C1(CN2CCn3c(ccc(C(=O)NCc4ccc(Cl)cc4)c3=O)C2=O)CC1` [Example 72-1, 2-((1-(N-(tert-butyl)sulfamoyl)cyclopropyl)methyl)-N-(4-chlorobenzyl)-1,6-dioxo-2,3,4,6-tetrahydro-1H-pyrido[1,2-a]pyrazine-7-carboxamide], the pIC50 in experiment [1] was 7.63; in experiment [3], 9.22. Also, in experiment [2], the pEC50 is 7.53.
Turning to `CCS(=O)(=O)N(C)CCN1CCn2c(ccc(C(=O)NCc3ccc(Cl)cc3)c2=O)C1=O` [Example 59], the negative-log IC50 (pIC50) was 5.83 in experiment [1] and 6.86 in experiment [3]. Also, in experiment [2], the pEC50 was 5.79.
Turning to `COC1(CN2CCn3c(ccc(C(=O)NCc4ccc(Cl)cc4)c3=O)C2=O)CC1` [Example 171, N-(4-chlorobenzyl)-2-((1-methoxycyclopropyl)methyl)-1,6-dioxo-1,3,4,6-tetrahydro-2H-pyrido[1,2-a]pyrazine-7-carboxamide], the pIC50 is 5.55 in experiment [1] and 7.14 in experiment [3]. Moreover, in experiment [2], the pEC50 is 6.20.
With `O=C(NCc1ccc(Cl)cc1)c1ccc2n(c1=O)CCN(CC1(NS(=O)(=O)C3CC3)CC1)C2=O` [Example 200], the pIC50 in experiment [1] was 5.59; in experiment [3], 6.63. Moreover, the pEC50 in experiment [2] is 5.17.
`CS(=O)(=O)NCCN1CCn2c(ccc(C(=O)NCc3ccc(Cl)cc3)c2=O)C1=O` [Example 62, N-(4-chlorobenzyl)-2-(2-(methylsulfonamido)ethyl)-1,6-dioxo-2,3,4,6-tetrahydro-1H-pyrido[1,2-a]pyrazine-7-carboxamide]: the values for the pIC50 in experiment [1] and in experiment [3] were 5.37 and 6.18, respectively. Moreover, in experiment [2], the pEC50 is 4.70.
For the compound `O=C(NCc1ccc(Cl)cc1)c1ccc2n(c1=O)CCN(CC1(S(=O)(=O)C3CCNC3)CC1)C2=O` (stereo not drawn) [Example 80-1, N-(4-chlorobenzyl)-1,6-dioxo-2-((1-(pyrrolidin-3-ylsulfonyl)cyclopropyl)methyl)-2,3,4,6-tetrahydro-1H-pyrido[1,2-a]pyrazine-7-carboxamide], the pIC50 is 7.01 in experiment [1] and 8.47 in experiment [3]. In experiment [2], the pEC50 is 6.67.
As to `C[C@H](NC(=O)c1ccc2n(c1=O)CCN(CC1(S(C)(=O)=O)CC1)C2=O)c1ccc(Cl)cc1` [Example 44], the pIC50 in experiment [1] was 4.20; in experiment [3], 6.12. Further, the pEC50 in experiment [2] was 5.00.
With `CC1(S(=O)(=O)C2(CN3CCn4c(ccc(C(=O)NCc5ccc(C#N)c(F)c5)c4=O)C3=O)CC2)CC1` [Example 94-2], the pIC50 is 7.60 in experiment [1] and 9.52 in experiment [3]. In addition, the pEC50 in experiment [2] is 8.10.
In the case of `N#Cc1ccc(CNC(=O)c2ccc3n(c2=O)CCN(CC2(S(=O)(=O)CC4(C(F)(F)F)CC4)CC2)C3=O)cc1F` [Example 104-3], the pIC50 in experiment [1] was 6.56; in experiment [3] it was 8.00. In addition, the pEC50 in experiment [2] was 5.97.
For `N#Cc1ccc(CNC(=O)c2ccc3n(c2=O)CCN(CC2(S(=O)(=O)C4(CO)CC4)CC2)C3=O)cc1` [Example 11], the pIC50 in experiment [1] was 7.61; in experiment [3] it was 9.40. Moreover, the pEC50 in experiment [2] was 7.57.
`Cc1cc(C(=O)NCc2ccc(Cl)cc2)c(=O)n2c1C(=O)N(CCS(C)(=O)=O)CC2` [Example 153]: the pIC50 in experiment [1] is 6.41; in experiment [3], 6.93. Besides, in experiment [2], the pEC50 is 6.20.
In the case of `CN(CCN1CCn2c(c(CF)cc(C(=O)NCc3ccc(Cl)cc3)c2=O)C1=O)S(C)(=O)=O` [Example 140, N-(4-chlorobenzyl)-9-(fluoromethyl)-2-(2-(N-methylmethylsulfonamido)ethyl)-1,6-dioxo-1,3,4,6-tetrahydro-2H-pyrido[1,2-a]pyrazine-7-carboxamide], the pIC50 in experiment [1] is 5.37; in experiment [3] it was 6.62. Also, in experiment [2], the negative logarithm of the EC50 (pEC50) is 5.65.
As to `CS(=O)(=O)C1(CN2CCn3c(ccc(C(=O)NCc4ccc(Br)cc4)c3=O)C2=O)CC1` [Example 37], the figures for the pIC50 in experiment [1] and in experiment [3] were 6.95 and 8.89, respectively. For the same compound, the pEC50 in experiment [2] is 7.21.
For the compound `CS(=O)(=O)CCCN1CCn2c(c(C#N)cc(C(=O)NCc3ccc(Cl)cc3)c2=O)C1=O` [Example 126], the negative-log IC50 (pIC50) in experiment [1] was 5.71; in experiment [3], 5.92. In experiment [2], the pEC50 was 4.30.
Take `CS(=O)(=O)CCCN1CCn2c(c(N3CCCC3)cc(C(=O)NCc3ccc(Cl)cc3)c2=O)C1=O` [Example 158, N-(4-chlorobenzyl)-2-(3-(methylsulfonyl)propyl)-1,6-dioxo-9-(pyrrolidin-1-yl)-1,3,4,6-tetrahydro-2H-pyrido[1,2-a]pyrazine-7-carboxamide]: the pIC50 in experiment [1] was 5.39; in experiment [3] it was 6.43. Further, the pEC50 in experiment [2] is 4.87.
With `CC1(CN2CCn3c(ccc(C(=O)NCc4ccc(Cl)cc4)c3=O)C2=O)COC1` [Example 57-1], the pIC50 in experiment [1] was 4.50; in experiment [3] it was 5.58. For the same compound, the pEC50 in experiment [2] is 4.53.
`CC(=O)NS(=O)(=O)C1(CN2CCn3c(ccc(C(=O)NCc4ccc(Cl)cc4)c3=O)C2=O)CC1` [Example 72-3, 2-((1-(N-acetylsulfamoyl)cyclopropyl)methyl)-N-(4-chlorobenzyl)-1,6-dioxo-2,3,4,6-tetrahydro-1H-pyrido[1,2-a]pyrazine-7-carboxamide]: the pIC50 in experiment [1] is 7.51; in experiment [3], 9.10. Moreover, in experiment [2], the pEC50 is 6.09.
For the compound `COCCN1CCn2c(ccc(C(=O)NCc3ccc(Cl)cc3)c2=O)C1=O` [Example 55], the pIC50 in experiment [1] was 4.94; in experiment [3], 6.15. In experiment [2], the pEC50 was 5.17.
The like results for `CN(C1(CN2CCn3c(ccc(C(=O)NCc4ccc(Cl)cc4)c3=O)C2=O)CC1)S(C)(=O)=O` [Example 174] were, in that order, 5.57, 7.19 and 5.38.
As to `CS(=O)(=O)NC1(CN2CCn3c(ccc(C(=O)NCc4ccc(Cl)cc4)c3=O)C2=O)CC1` [Example 198], the pIC50 in experiment [1] is 5.82; in experiment [3] it was 7.43. The pEC50 in experiment [2] was 5.78.
For the compound `CS(=O)(=O)CC1(CN2CCn3c(ccc(C(=O)NCc4ccc(Cl)cc4)c3=O)C2=O)CC1` [Example 173, N-(4-chlorobenzyl)-2-((1-((methylsulfonyl)methyl)cyclopropyl)methyl)-1,6-dioxo-1,3,4,6-tetrahydro-2H-pyrido[1,2-a]pyrazine-7-carboxamide], the results for the pIC50 in experiment [1] and in experiment [3] were 6.63 and 7.69, respectively. Further, the pEC50 in experiment [2] is 6.44.
Consider `CC1(S(=O)(=O)C2(CN3CCn4c(ccc(C(=O)NCc5ccc(C#N)cc5)c4=O)C3=O)CC2)CC1` [Example 94-1], for which the pIC50 in experiment [1] is 7.48; in experiment [3] it was 9.22. In addition, the pEC50 in experiment [2] was 7.88.
On to `CN(CCN1CCn2c(c(C#CCO)cc(C(=O)NCc3ccc(Cl)cc3)c2=O)C1=O)S(C)(=O)=O` [Example 155, N-(4-chlorobenzyl)-9-(3-hydroxyprop-1-yn-1-yl)-2-(2-(N-methylmethylsulfonamido)ethyl)-1,6-dioxo-1,3,4,6-tetrahydro-2H-pyrido[1,2-a]pyrazine-7-carboxamide], for which the pIC50 in experiment [1] was 5.71; in experiment [3], 6.70. Also, the pEC50 in experiment [2] is 4.43.
`O=C(NCc1ccc(Cl)cc1)c1ccc2n(c1=O)CCN(CC1(S(=O)(=O)N3CC(F)(F)C3)CC1)C2=O` [Example 84-3]: the pIC50 in experiment [1] was 7.28; in experiment [3], 8.85. In addition, the pEC50 in experiment [2] is 7.51.
